Patent US6863865B2, “Sterilization of pharmaceuticals” (Breath Limited, priority 2000, dated 2005)

Key:
[1] = HPLC evaluation of impurities after high temperature short time (HTST) sterilization; format: physicochemical; details: Fo exposures up to 24
From the text: The formulation to be sterilized was passed through narrow lines of pharmaceutical quality stainless steel in which the sample was rapidly raised to an elevated temperature, maintained at this holding temperature for a period of time, then rapidly returned to ambient temperature. Parameters described in Table 1 are the BMRT (bulk mean retention time), that is the time between the sample being raised above ambient temperature and being returned to ambient temperature, and the FFERT, the time for which the sample is maintained at the elevated temperature. […] The theoretical kill rate, Fo, may be calculated from the FFERT and the elevated temperature. The value of Fo is optimally greater than 10, but values greater than 8 are acceptable for the production of sterile formulations.
This example was carried out to evaluate the effect of HTST on the chemical purity of pharmaceutical preparations by assessing the levels of degradation obtained in samples exposed to varying Fo (effective killing times) times. For the purposes of these experiments, budesonide suspensions were used in the evaluation.
The samples were then evaluated using high performance liquid chromatography to assess the level of impurities present.

[2] = Treatment with high intensity light (Pure-bright process); format: physicochemical; details: light at 900 times the intensity of sunlight at sea level; formulations produced as in Example 1
From the text: An alternative method of sterilization of a budesonide suspension is treatment with high intensity light. The so-called “Pure-bright” process allows treatment with light at 900 times the intensity of sunlight at sea level.

[3] = cited from earlier work

- stability of budesonide to high intensity light [2]: completely destroyed
Structure (SMILES): CCCC1O[C@@H]2C[C@H]3[C@@H]4CCC5=CC(=O)C=C[C@]5(C)[C@H]4[C@@H](O)C[C@]3(C)[C@]2(C(=O)CO)O1 (stereo partly drawn) [budesonide]
- effect on chemical stability [1]: no adverse effect
- stability to gamma-irradiation [3]: destroyed
